Test results from paper PMC3834941, “Pharmacokinetic Evaluation of a DSPE-PEG2000 Micellar Formulation of Ridaforolimus in Rat” (Pharmaceutics, 2012).

Tests used:
[1] = In vitro release by dialysis into PBS pH 7.4, 37 °C; type: physicochemical; settings: free drug
Procedure: The in vitro release of the drug from DSPE-PEG2000 micelles into PBS (pH 7.4) was done by a dialysis method. Dialysis was carried out at 37 °C under sink condition using a 10-kDa MWCO dialysis tubing (SnakeSkin®, Thermo Scientific Inc., Rockford, IL, USA). The initial volume of drug-loaded micelles in the dialysis tubing was 2 mL and the sink solution was 4 L. The PBS was changed several times per day to maintain sink conditions. After pre-determined time intervals, samples were withdrawn from the dialysis bag and analyzed by a reversed phase HPLC column (TSK-GEL® ODS-100Z, Tosoh Bioscience) at 50 °C with UV detection at 290 nm.

[2] = set-up: method as in PMID 19228743; settings: humans, clinical Phase I trials; cited from earlier work

For `CO[C@H]1C[C@@H]2CC[C@@H](C)[C@@](O)(O2)C(=O)C(=O)N2CCCC[C@H]2C(=O)O[C@H]([C@H](C)C[C@@H]2CC[C@@H](OP(C)(C)=O)[C@H](OC)C2)CC(=O)[C@H](C)/C=C(\C)[C@@H](O)[C@@H](OC)C(=O)[C@H](C)C[C@H](C)/C=C/C=C/C=C/1C` [Ridaforolimus, ridaforolimus], which “in vitro release t50%” value [1] is on record?
The value was “less than 20 min”.

What about the “in vitro release t90%” value [1] of the same compound?
The value was 1 h.

What about the half-life [2] of the same compound?
Its half-life is 45 to 52 h.
